Assay results published in the supplement of paper PMC13380429.

Columns and labels:
Conditions in all cases: 72 h
[1] = tested on: Caco-2; experiment: cell viability relative to DMSO; higher = less toxic
[2] = tested on: Calu-3; experiment: as above
[3] = tested on: HepG2; experiment: as above
[4] = tested on: U2OS; experiment: as above
[5] = tested on: Caco-2; experiment: relative viability EC50 (midpoint between 100% and the lowest measured viability); higher = less toxic
[6] = tested on: Calu-3; experiment: as above
[7] = tested on: HepG2; experiment: as above
[8] = tested on: U2OS; experiment: as above
[9] = tested on: Caco-2; experiment: drug sensitivity score (DSS) for viability; higher = more toxic; extreme values may be limits of the assay
[10] = tested on: Calu-3; experiment: as above
[11] = tested on: HepG2; experiment: as above
[12] = tested on: U2OS; experiment: as above
[13] = tested on: Vero E6; experiment: cell viability relative to DMSO; higher = less toxic
[14] = tested on: Vero E6; experiment: relative viability EC50 (midpoint between 100% and the lowest measured viability); higher = less toxic
[15] = tested on: Vero E6; experiment: drug sensitivity score (DSS) for viability; higher = more toxic; extreme values may be limits of the assay

Compound	cell viability ([1]; 1 nM)	cell viability ([1]; 10 nM)	cell viability ([1]; 100 nM)	cell viability ([1]; 1000 nM)	cell viability ([1]; 10000 nM)	cell viability ([2]; 1 nM)	cell viability ([2]; 10 nM)	cell viability ([2]; 100 nM)	cell viability ([2]; 1000 nM)	cell viability ([2]; 10000 nM)	cell viability ([3]; 1 nM)	cell viability ([3]; 10 nM)	cell viability ([3]; 100 nM)	cell viability ([3]; 1000 nM)	cell viability ([3]; 10000 nM)	cell viability ([4]; 1 nM)	cell viability ([4]; 10 nM)	cell viability ([4]; 100 nM)	cell viability ([4]; 1000 nM)	cell viability ([4]; 10000 nM)	relative viability EC50 [5]	relative viability EC50 [6]	relative viability EC50 [7]	relative viability EC50 [8]	drug sensitivity score [9]	drug sensitivity score [10]	drug sensitivity score [11]	drug sensitivity score [12]	cell viability ([13]; 1 nM)	cell viability ([13]; 10 nM)	cell viability ([13]; 100 nM)	cell viability ([13]; 1000 nM)	cell viability ([13]; 10000 nM)	relative viability EC50 [14]	drug sensitivity score [15]
Cc1c(NC(=O)N2CCOCC2)ccc2c1c1ccccc1n2C(C)C [NPY-5RA972]	92.2%	106%	98.7%	101%	95.4%	109%	89.5%	105%	93.5%	96%	102%	98.5%	97.3%	118%	95.5%	100%	98.2%	105%	98.6%	97.5%	> 10 µM	> 10 µM	> 10 µM	> 10 µM	0	0	0	0							
N#Cc1ccnc(N2C(=O)CC[C@H]2C(=O)N(c2cncc(F)c2)[C@H](C(=O)NC2CC(F)(F)C2)c2ccccc2Cl)c1 [ivosidenib]	105%	97.6%	94.2%	93%	104%	98.8%	109%	93.7%	104%	97.3%	97.5%	97.7%	95.1%	106%	98.7%	104%	100%	104%	101%	98.3%	> 10 µM	> 10 µM	> 10 µM	> 10 µM	0	0	0	0							
CCN(CCCCOC(=O)c1ccc(OC)c(OC)c1)C(C)Cc1ccc(OC)cc1 (stereo not drawn) [mebeverine]	101%	96.3%	97.2%	90.8%	83.8%	95.2%	98.3%	101%	100%	93.8%	105%	112%	100%	103%	91.6%	102%	99.4%	99.1%	102%	96.3%	> 10 µM	> 10 µM	> 10 µM	> 10 µM	0.6	0	0	0							
CC1=CC[C@@H](C(C)(C)O)C[C@@H]1O [sobrepin]	109%	121%	94.4%	103%	87.9%						109%	99.6%	114%	103%	110%						> 10 µM		> 10 µM		0		0		98%	99.7%	96.3%	98.1%	90.7%	> 10 µM	0
CC(C)OC(=O)[C@H](C)N[P@](=O)(CO[C@H](C)Cn1cnc2c(N)ncnc21)Oc1ccccc1 [tenofovir-alafenamide]	99.3%	100%	98.2%	108%	94.3%	106%	97.4%	112%	104%	78.9%	98.8%	91.9%	116%	89%	44.6%	99.4%	102%	97.4%	100%	95.6%	> 10 µM	> 10 µM	1.75 µM	> 10 µM	0	0.5	4.8	0							
COCc1c(-c2ccc(NC(=O)Nc3cc(C(F)(F)F)ccc3F)c(F)c2)c2c(N)ncnn2c1CN1CCOCC1 [ACTB-1003]	105%	99%	102%	78.4%	32.9%	101%	87.5%	93.9%	72.1%	65.2%	110%	104%	91.1%	18.1%	2.1%	97.6%	97.1%	101%	75%	23.3%	1.35 µM		0.386 µM	1.34 µM	6.8	5.2	16.2	7.8	95.7%	102%	101%	106%	24.8%	3.57 µM	3.7
CCCC(CCC)C(=O)NCC(N)=O [valrocemide]	95.6%	94.1%	91.5%	90.9%	97.6%						94.6%	101%	95.6%	102%	101%	104%	101%	97.7%	104%	98.9%	> 10 µM		> 10 µM	> 10 µM	0		0	0	97.3%	104%	104%	97.8%	101%	> 10 µM	0
NC(=O)CN1CC(c2ccccc2)CC1=O (stereo not drawn) [phenylpiracetam]	104%	103%	93.1%	102%	91.8%	103%	97.3%	99.5%	98.5%	91.7%	112%	107%	104%	94%	104%	99.3%	102%	98.1%	102%	98.1%	> 10 µM	> 10 µM	> 10 µM	> 10 µM	0	0	0	0							
